{"source": "patent US20120077683A1", "about": "“KIT AND METHOD FOR PREDICTING CYTARABINE SENSITIVY OF PATIENT HAVING ACUTE MYELOID LEUKEMIA” (SAMSUNG ELECTRONICS CO., LTD., priority 2010, published 2012)", "key": {"[1]": {"test_system": "patients having acute myeloid leukemia", "experiment": "Cytarabine therapy of patients having acute myeloid leukemia, complete remission determined from number of leukocytes", "type": "in vivo, human", "settings": "of 139 patients with acute myeloid leukemia, cytarabine administered according to NCCN guidelines", "description": "Cytarabine sensitivity of 139 patients who had acute myeloid leukemia and were treated in Samsung Medical Center was identified. That is, cytarabine was administered to the patients according to NCCN guidelines, and the number of leukocytes was subsequently measured in each patient to determine complete remission to determine whether the cytarabine therapy was effective for the patient. The patients were then classified into one group of 121 patients having cytarabine sensitivity (responders) and the other group of 18 patients not having cytarabine sensitivity (nonresponders). In addition, blood of the patients was obtained to extract DNA by using QIAamp DNA Mini and blood Mini kits in order to determine SNPs associated with cytarabine sensitivity of the patients."}, "[2]": {"test_system": "patients having acute myeloid leukemia", "settings": "stated as known; cited from earlier work"}}}
{"smiles": "Nc1ccn([C@@H]2O[C@H](CO)[C@@H](O)[C@@H]2O)c(=O)n1", "note": "[cytarabine, cytosine arabinoside]", "values": [{"measurement": "patients having cytarabine sensitivity (responders)", "setting": "[1]", "value": 121, "unit": "patients"}, {"measurement": "patients not having cytarabine sensitivity (nonresponders)", "setting": "[1]", "value": 18, "unit": "patients"}, {"measurement": "patients having acute myeloid leukemia on whom administration of cytarabine is not effective", "setting": "[2]", "value": "about 20%"}]}
